Values quoted from earlier work as cited in patent US8802148B2, “Microparticles and method for their production” (Alrise Biosystems GmbH, priority 2002, dated 2014).
Where a name gives a salt, the structure may show the parent alone.

details: at 20-25° C.

SMILES | Solubility in water (w/w) [%]
CCOC(C)=O [ethyl acetate] | 7.43
CCOC=O [ethyl formate] | 8.4
CC(=O)OC(C)C [iIsopropyl acetate, isopropyl acetate] | 3.09
COC(C)=O [methyl acetate] | 22.8
CCCOC(C)=O [propyl acetate] | 1.67
CCCOC=O [propyl formate] | 2.82
